Data: patent US6872706B2, “Glucopyranosyloxybenzylbenzene derivatives and medicinal compositions containing the same” (Kissei Pharmaceutical Co., Ltd., priority 2000, dated 2005)

How the values were obtained:
[1] = Assay for the facilitatory effect on urinary glucose excretion; type: in vivo; settings: non-fasted male SD rats, oral, urine collected 24 hours
Method: Assay for the Facilitatory Effect on Urinary Glucose Excretion
As experimental animal, non-fasted SD rats (SLC. Inc., male, 8 weeks of age, 270-320 g) were used. A test compound was suspended in 0.5% sodium carboxymethylcellulose solution and 0.3, 1 and 3 mg/mL suspension were prepared. Adler the body weights of rats were measured, the test suspension was orally administered at the dose of 10 mL/kg (3, 10 and 30 mg/kg). For the control, just only 0.5% sodium carboxymethylcellulose solution was orally administered at the dose of 10 mL/kg. The oral administration was performed with gastric tube for rat and 2.5 mL syringe. The head count in one group was 5 or 6. Collection of urine was performed in metabolic cage after the oral administration was finished. The sampling time for collection of urine was 24 hours after the oral administration. After collection of urine was finished, the urine volume was recorded and the urinary glucose concentration was measured. The glucose concentration was measured with a kit for laboratory test: Glucose B-Test WAKO (Wako Pure Chemical Industries, Ltd.). The amount of urinary glucose excretion in 24 hours per 200 g of body weight was calculated from urine volume, urinary glucose concentration and body weight.

Acute toxicity test = type: in vivo; settings: male ICR mice, oral 600 mg/kg, until 24 hours after the administration, 5 animals in each group
Method: Four weeks old male ICR mice (CLEA JAPAN, INC. 22-28 g, 5 animals in each group) were fasted for 4 hours, and 60 mg/mL of a suspension of a test compound in 0.5% sodium carboxymethylcellulose solution was orally administered at the dose of 10 mL/kg(600 mg/kg).

human SGLT2 = target: T1, human SGLT2 (Homo sapiens, UniProt P31639, I433V); experiment: Assay for inhibitory effect on human SGLT2 activity (uptake of methyl-α-D-glucopyranoside in COS-7 cells expressing transiently human SGLT2); type: cell-based; settings: inhibition of methyl-α-D-(U-14C)glucopyranoside uptake, COS-7 cells expressing transiently human SGLT2, 37° C., 2 hours
T1 construct: expressed in transfected cells; host or cells: COS-7 cells (RIKEN CELL BANK RCB0539), transient, electroporation
T1 sequence (P31639 1-672 I433V): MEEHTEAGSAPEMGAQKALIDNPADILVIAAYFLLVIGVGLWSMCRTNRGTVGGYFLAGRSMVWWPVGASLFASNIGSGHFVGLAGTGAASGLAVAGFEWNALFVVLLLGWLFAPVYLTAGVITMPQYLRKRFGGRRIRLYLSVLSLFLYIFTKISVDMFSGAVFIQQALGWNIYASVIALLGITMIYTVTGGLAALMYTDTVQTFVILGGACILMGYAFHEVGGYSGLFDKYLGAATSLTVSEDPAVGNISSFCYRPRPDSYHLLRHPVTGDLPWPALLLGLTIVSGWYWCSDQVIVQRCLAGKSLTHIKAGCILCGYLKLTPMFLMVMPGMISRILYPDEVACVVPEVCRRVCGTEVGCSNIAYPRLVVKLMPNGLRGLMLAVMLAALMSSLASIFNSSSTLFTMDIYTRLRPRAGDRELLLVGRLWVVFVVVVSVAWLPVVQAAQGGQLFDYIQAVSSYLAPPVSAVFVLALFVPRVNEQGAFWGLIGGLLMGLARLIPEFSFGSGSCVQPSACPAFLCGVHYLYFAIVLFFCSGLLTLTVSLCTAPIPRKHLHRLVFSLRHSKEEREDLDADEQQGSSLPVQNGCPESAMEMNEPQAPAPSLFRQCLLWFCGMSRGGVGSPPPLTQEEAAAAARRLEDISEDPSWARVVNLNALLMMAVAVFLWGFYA
Method: Assay for Inhibitory Effect on Human SGLT2 Activity
1) Construction of the Plasmid Vector Expressing Human SGLT2
Preparation of the cDNA library for PCR amplification was performed by reverse transcription of a total RNA deprived from human kidney (Ori gene) with oligo dT as the primer, using […] Preamplification System (Gibco-BRL: LIFE TECHNOLOGIES). […] The amplified DNA fragment was ligated into pCR-Blunt (Invitrogen), a vector for cloning, according to standard method of the kit. The competent cell, Escherichia coli HB101 (Toyobo), was transformed according to usual method and then selection of the transformants was performed on the LB agar medium containing 50 μg/mL of kanamycin. After the plasmid DNA was extracted and purified from the one of the transformants, amplifying of the DNA fragment coding for human SGLT2 was performed by the Pfu DNA Polymerase (Stratagene)-used PCR reaction, in which the following oligo nucleotides 0714F and 0715R, presented as Sequence Numbers 3 and 4 respectively, were used as the primers. The amplified DNA fragment was digested with restriction enzymes, Xho I and Hind III, and then purified with Wizard Purification System (Promega). This purified DNA fragment was inserted at the corresponding multi-cloning sites of pcDNA3.1 (−) Myc/His-B (Invitrogen), a vector for expressing of fusion protein. The competent cell, Escherichia coli HB101 (Toyobo), was transformed according to usual method and then selection of the transformant was performed on the LB agar medium containing 100 μg/mL of ampicillin. After the plasmid DNA was extracted and purified from this transformant, the base sequence of the DNA fragment inserted at the multi-cloning sites of pcDNA3.1 (−) Myc/His-B was analyzed. […] This plasmid vector expressing human SGLT2 in which the peptide presented as Sequence Number 5 is fused to the carboxyl terminal alanine residue was designated KL29.
2) Preparation of the Cells Expressing Transiently Human SGLT2
KL29, the plasmid coding human SGLT2, was transfected into COS-7 cells (RIKEN CELL BANK RCB0539) by electroporation. Electroporation was performed with GENE PULSER II (Bio-Rad Laboratories) under the condition: 0.290 kV, 975 μF, 2×10^6 cells of COS-7 cell and 20 μg of KL29 in 500 μL of OPTI-MEM I medium (Gibco-BRL: LIFE TECHNOLOGIES) in the 0.4 cm type cuvette. After the gene transfer, the cells were harvested by centrifugation and resuspended with OPTI-MEM I medium (1 mL/cuvette). To each well in 96-wells plate, 125 μL of this cell suspension was added. After overnight culture at 37° C. under 5% CO2, 125 μL of DMEM medium which is containing 10% of fetal bovine serum (Sanko Jyunyaku), 100 units/mL sodium penicillin G (Gibco-BRL: LIFE TECHNOLOGIES) and 100 μg/mL streptomycin sulfate (Gibco-BRL: LIFE TECHNOLOGIES) was added to each well. After a culture until the following day, these cells were used for the measurement of the inhibitory activity against the uptake of methyl-α-D-glucopyranoside.
3) Measurement of the Inhibitory Activity Against the Uptake of Methyl-α-D-Glucopyranoside
After a test compound was dissolved in dimethyl sulfoxide and diluted with the uptake buffer (a pH 7.4 buffer containing 140 mM sodium chloride, 2 mM potassium chloride, 1 mM calcium chloride, 1 mM magnesium chloride, 5 mM methyl-α-D-glucopyranoside, 10 mM 2-[4-(2-hydroxyethyl)-1-piperazinyl]ethane sulfonic acid and 5 mM tris (hydroxymethyl) aminomethane), each diluent was used as test sample for measurement of the inhibitory activity.

| SMILES | IC50 (human SGLT2) | other results |
| --- | --- | --- |
| CCOC(=O)OC[C@H]1O[C@@H](Oc2ccccc2Cc2ccc(OC)cc2)[C@H](O)[C@@H](O)[C@@H]1O [Example 1, 2-(4-Methoxybenzyl)phenyl 6-O-ethoxycarbonyl-β-D-glucopyranoside] | – | Amount of Urinary Glucose Excretion ([1]; dose 3 mg/kg): 52 mg/24 hours · 200 g body weight; Amount of Urinary Glucose Excretion ([1]; dose 10 mg/kg): 239 mg/24 hours · 200 g body weight; Amount of Urinary Glucose Excretion ([1]; dose 30 mg/kg): 513 mg/24 hours · 200 g body weight; Death number (Acute toxicity test): 0/5 |
| CC(C)Oc1ccc(Cc2ccccc2O[C@@H]2O[C@H](CO)[C@@H](O)[C@H](O)[C@H]2O)cc1 [Reference Example 16, 2-(4-Isopropoxybenzy)phenyl β-D-Glucopyranoside] | 0.37 µM | – |
| COc1ccc(Cc2ccccc2O[C@@H]2O[C@H](CO)[C@@H](O)[C@H](O)[C@H]2O)cc1 [Reference Example 11, 2-(4-Methoxybenzyl)phenyl β-D-glucopyranoside] | 0.35 µM | – |
| CC(C)Cc1ccc(Cc2ccccc2O[C@@H]2O[C@H](CO)[C@@H](O)[C@H](O)[C@H]2O)cc1 [Reference Example 14, 2-(4-Isobutylbenzyl)phenyl β-D-glucopyranoside] | 0.5 µM | – |

The next lines start with results.

| IC50 (human SGLT2) | SMILES | other results |
| --- | --- | --- |
| 0.11 µM | CCSc1ccc(Cc2ccccc2O[C@@H]2O[C@H](CO)[C@@H](O)[C@H](O)[C@H]2O)cc1 [Reference Example 17, 2-(4-Ethylthiobenzyl)phenyl β-D-glucopyranoside] | – |
| 0.33 µM | CCOc1ccc(Cc2ccccc2O[C@@H]2O[C@H](CO)[C@@H](O)[C@H](O)[C@H]2O)cc1 [Reference Example 15, 2-(4-Ethoxybenzyl)phenyl β-D-glucopyranoside] | – |
| 0.14 µM | CCc1ccc(Cc2ccccc2O[C@@H]2O[C@H](CO)[C@@H](O)[C@H](O)[C@H]2O)cc1 [Reference Example 13, 2-(4-Ethylbenzyl)phenyl β-D-glucopyranoside] | – |
